Results from article PMC7041945, “Misfolded proteins bind and activate death receptor 5 to trigger apoptosis during unresolved endoplasmic reticulum stress” (eLife, 2020).

Key:
GAPDH = assay: qPCR of GAPDH (reference transcript); format: cell-based; conditions: Rep 2; for avg. fold induction GAPDH / fold induction GAPDH: relative to empty traffo
[1] = system: DR5 / ERGIC53 / giantin in HCT116 cells; assay: Immunofluorescence co-localization (Pearson's correlation per cell); format: cell-based, Homo sapiens; conditions: Mean ± SEM
Description: HCT116 were seeded at 25000 cells per well in an 8-well glass-bottom μSlide (Ibidi 80827) pre-coated with Collagen IV (Sigma-Aldrich C6745, 0.03 mg/ml in PBS incubated for 30 min at RT, and then rinsed off with PBS x 3) in growth media 18 hr prior to transfection (see above for protocol). 24 hr post-transfection, the cells were fixed using 4% paraformaldehyde (PFA, Electron Microscopy Sciences) or methanol, depending on the antibody combination used for immunostaining (see table below). Samples were protected from light after fixation to preserve GFP fluorescence.
For fixation with 4% PFA, 32% PFA was added directly to the well in growth media for a 1:8 dilution and incubated for 10–15 min at RT. Cells were then permeabilized with PHEM buffer (60 mM PIPES, 25 mM HEPES, 10 mM EGTA, 2 mM MgCl2-hexahydrate, pH 6.9) containing 0.1% Triton-X100 for 10 min at RT for three washes.
For fixation with methanol, media was removed and cells were washed with cold PBS. Then methanol (pre-cooled at −20°C) was added to the well and incubated at −20°C for 3–4 min. The methanol was promptly aspirated and replaced with PHEM buffer (without Triton X-100), followed by two more 10 min washes with PHEM at RT.
To block against non-specific antibody interactions, cells were rinsed in PHEM (without 0.1% Triton X-100) and then incubated with PHEM containing 2% normal goat serum (Jackson Immunoresearch Laboratories, 005-000-121) for 1 hr at RT. Primary antibodies were incubated in blocking solution overnight at 4°C at the dilution noted in the table above. Cells were then washed with PHEM buffer for 10 min at RT x three and incubated with secondary antibodies, anti-mouse-AlexaFluor546 (Invitrogen A11030) and anti-rabbit-AlexaFluor633 (Invitrogen A21071), diluted 1:1000 in PHEM with 2% normal goat serum. (Secondary antibody solutions were centrifuged at 15000xg for 20 mins at 4°C to remove aggregates prior to incubating with cell samples.) After a 1 hr incubation at RT, cells were washed with PHEM buffer once, then incubated with PHEM buffer containing nuclear stain (DAPI, Molecular Probes, Eugene, OR, D-1306, 5 μg/mL), and finally rinsed with PHEM buffer twice before imaging.
Samples were imaged on a spinning disk confocal with Yokogawa CSUX A1 scan head, Andor iXon EMCCD camera, and 40x Plan Apo air Objective NA 0.95 or 100x ApoTIRF objective NA 1.49 (Nikon).
From the 405 nm channel, cell nuclei were identified as primary objects using maximum correlation thresholding (MCT) and shape to distinguish clumped objects. Secondary objects were outlined using propagation from the nuclei (DAPI) after applying MCT from the 488 nm, 561 nm, and 633 nm channels. Tertiary objects for each cell was identified as the mask of each nucleus subtracted from the mask of its corresponding secondary object in each channel, yielding masks for intracellular GFP-tagged protein from the 488 nm channel, for intracellular DR5 from the 561 nm channel, and for the organelle marker in the 633 nm channel. For overlap between DR5 and MPZ/RHO-GFP, Pearson’s correlation coefficients were calculated within the MPZ/RHO mask for each cell to filter out untransfected cells. For overlap between DR5/MPZ and organelle markers, Pearson’s correlation coefficients were calculated within tertiary objects for the organelle marker in GFP+ cells. Statistical analyses for all data sets were performed using GraphPad Prism 6.0.

[2] = system: XBP1 mRNA in HCT116 cells; assay: RT-PCR for Xbp1 mRNA splicing; format: cell-based, Homo sapiens; conditions: HCT116, 24 hr
Description: Cells were grown in 6-well plates and harvested with 0.5 ml of TRIzol reagent (Life Technologies) per manufacturer's protocol to extract RNA. […] The reverse transcription product was diluted to 200 μl with 10 mM Tris-HCl pH 8.2 and used at 1:100 dilution for subsequent RT-PCR reactions. 2 μl of cDNA was added to 0.2 μM of forward and reverse primers ([…]; Hs_XBP1_Rev: [NT]), 0.2 mM of each dNTP, 0.5 units of Taq DNA polymerase (Thermo Scientific). The reaction was set at an annealing temperature of 60.5°C with an extension time of 30 s for 26 cycles.

[3] = HCT116, 24 hr post-transfection

Question: `C/C=C(/C)C(=O)O[C@H]1C(C)=C2[C@H]([C@@H]1OC(=O)CCCCCCC)[C@@](C)(OC(C)=O)C[C@H](OC(=O)CCC)[C@@]1(O)[C@H]2OC(=O)[C@@]1(C)O` [thapsigargin, reference compound] was tested. Which “Cq GAPDH” value (GAPDH; 24 hr, mean of 3 replicates) did it give?
Answer: 18.752

Question: And the “avg. fold induction GAPDH” value (GAPDH; 24 hr, mean of 3 replicates)?
Answer: 1.009

Question: And the “fold induction GAPDH” value (GAPDH; 24 hr, replicate 1)?
Answer: 0.7989

Question: And the “fold induction GAPDH” value (GAPDH; 24 hr, replicate 2)?
Answer: 1.157

Question: What about the “fold induction GAPDH” value (GAPDH; 24 hr, replicate 3) of the same molecule?
Answer: 1.071

Question: What about the “2^-(deltaCq) GAPDH” value (GAPDH; 24 hr, replicate 1) of the same molecule?
Answer: 0.8014

Question: And the “Cq GAPDH” value (GAPDH; 24 hr, replicate 1)?
Answer: 19.0714

Question: What about the “Cq(sample) - avg Cq(GAPDH), GAPDH” value (GAPDH; 24 hr, replicate 1) of the same molecule?
Answer: 0.3194

Question: What about the “2^-(deltaCq) GAPDH” value (GAPDH; 24 hr, replicate 2) of the same molecule?
Answer: 1.161

Question: And the “Cq GAPDH” value (GAPDH; 24 hr, replicate 2)?
Answer: 18.5367

Question: What about the “Cq(sample) - avg Cq(GAPDH), GAPDH” value (GAPDH; 24 hr, replicate 2) of the same molecule?
Answer: -0.2154

Question: And the “2^-(deltaCq) GAPDH” value (GAPDH; 24 hr, replicate 3)?
Answer: 1.075

Question: And the “Cq GAPDH” value (GAPDH; 24 hr, replicate 3)?
Answer: 18.648

Question: What about the “Cq(sample) - avg Cq(GAPDH), GAPDH” value (GAPDH; 24 hr, replicate 3) of the same molecule?
Answer: -0.104

Question: Which results are given for “FTWRYQPEGGRDAISIFHYA [MPZ-ecto peptide-eGFP, expressed construct: MPZ ectodomain replaced by the MPZ-ecto peptide, GFP-tagged]”?
Answer: Pearson's correlation per cell of GFP-tagged peptide with DR5 [1, 3]: 0.23 ± 0.04; Pearson's correlation per cell of GFP-tagged peptide with ERGIC [1, 3]: 0.18 ± 0.04; Pearson's correlation per cell between DR5 and ERGIC ([1]; HCT116 expressing GFP-tagged peptide, 24 hr): 0.34 ± 0.03

Question: Which “XBP1 mRNA splicing” value [2] does the source give for “INS-GFP: GFP-tagged proinsulin expressed from plasmid” here?
Answer: induced XBP1 mRNA splicing

Question: What about the “Cq GAPDH” value (GAPDH; 3 hr, mean of 3 replicates) of the same molecule?
Answer: 19.1619

Question: What about the “avg. fold induction GAPDH” value (GAPDH; 3 hr, mean of 3 replicates) of the same molecule?
Answer: 1

Question: What about the “fold induction GAPDH” value (GAPDH; 3 hr, replicate 1) of the same molecule?
Answer: 0.8888

Question: What about the “fold induction GAPDH” value (GAPDH; 3 hr, replicate 2) of the same molecule?
Answer: 1.06

Question: And the “fold induction GAPDH” value (GAPDH; 3 hr, replicate 3)?
Answer: 1.051

Question: And the “2^-(deltaCq) GAPDH” value (GAPDH; 3 hr, replicate 1)?
Answer: 0.8916

Question: And the “Cq GAPDH” value (GAPDH; 3 hr, replicate 1)?
Answer: 19.3274

Question: And the “Cq(sample) - avg Cq(GAPDH), GAPDH” value (GAPDH; 3 hr, replicate 1)?
Answer: 0.1655

Question: And the “2^-(deltaCq) GAPDH” value (GAPDH; 3 hr, replicate 2)?
Answer: 1.064

Question: And the “Cq GAPDH” value (GAPDH; 3 hr, replicate 2)?
Answer: 19.0729

Question: What about the “Cq(sample) - avg Cq(GAPDH), GAPDH” value (GAPDH; 3 hr, replicate 2) of the same molecule?
Answer: -0.08892

Question: And the “2^-(deltaCq) GAPDH” value (GAPDH; 3 hr, replicate 3)?
Answer: 1.055

Question: And the “Cq GAPDH” value (GAPDH; 3 hr, replicate 3)?
Answer: 19.0852

Question: And the “Cq(sample) - avg Cq(GAPDH), GAPDH” value (GAPDH; 3 hr, replicate 3)?
Answer: -0.07662

Question: What about the “Cq GAPDH” value (GAPDH; 7 hr, mean of 3 replicates) of the same molecule?
Answer: 19.3003

Question: And the “avg. fold induction GAPDH” value (GAPDH; 7 hr, mean of 3 replicates)?
Answer: 1.004

Question: And the “fold induction GAPDH” value (GAPDH; 7 hr, replicate 1)?
Answer: 0.8393

Question: What about the “fold induction GAPDH” value (GAPDH; 7 hr, replicate 2) of the same molecule?
Answer: 1.091

Question: And the “fold induction GAPDH” value (GAPDH; 7 hr, replicate 3)?
Answer: 1.082

Question: What about the “2^-(deltaCq) GAPDH” value (GAPDH; 7 hr, replicate 1) of the same molecule?
Answer: 0.842

Question: And the “Cq GAPDH” value (GAPDH; 7 hr, replicate 1)?
Answer: 19.5485

Question: And the “Cq(sample) - avg Cq(GAPDH), GAPDH” value (GAPDH; 7 hr, replicate 1)?
Answer: 0.2482

Question: And the “2^-(deltaCq) GAPDH” value (GAPDH; 7 hr, replicate 2)?
Answer: 1.094

Question: What about the “Cq GAPDH” value (GAPDH; 7 hr, replicate 2) of the same molecule?
Answer: 19.1708

Question: And the “Cq(sample) - avg Cq(GAPDH), GAPDH” value (GAPDH; 7 hr, replicate 2)?
Answer: -0.1295

Question: And the “2^-(deltaCq) GAPDH” value (GAPDH; 7 hr, replicate 3)?
Answer: 1.086

Question: What about the “Cq GAPDH” value (GAPDH; 7 hr, replicate 3) of the same molecule?
Answer: 19.1817

Question: And the “Cq(sample) - avg Cq(GAPDH), GAPDH” value (GAPDH; 7 hr, replicate 3)?
Answer: -0.1186

Question: What about the “Cq GAPDH” value (GAPDH; 24 hr, mean of 3 replicates) of the same molecule?
Answer: 19.7046

Question: What about the “avg. fold induction GAPDH” value (GAPDH; 24 hr, mean of 3 replicates) of the same molecule?
Answer: 1.006

Question: And the “fold induction GAPDH” value (GAPDH; 24 hr, replicate 1)?
Answer: 0.8281

Question: What about the “fold induction GAPDH” value (GAPDH; 24 hr, replicate 2) of the same molecule?
Answer: 1.042

Question: And the “fold induction GAPDH” value (GAPDH; 24 hr, replicate 3)?
Answer: 1.149

Question: And the “2^-(deltaCq) GAPDH” value (GAPDH; 24 hr, replicate 1)?
Answer: 0.8307

Question: And the “Cq GAPDH” value (GAPDH; 24 hr, replicate 1)?
Answer: 19.9722

Question: What about the “Cq(sample) - avg Cq(GAPDH), GAPDH” value (GAPDH; 24 hr, replicate 1) of the same molecule?
Answer: 0.2676

Question: What about the “2^-(deltaCq) GAPDH” value (GAPDH; 24 hr, replicate 2) of the same molecule?
Answer: 1.045

Question: What about the “Cq GAPDH” value (GAPDH; 24 hr, replicate 2) of the same molecule?
Answer: 19.6413

Question: And the “Cq(sample) - avg Cq(GAPDH), GAPDH” value (GAPDH; 24 hr, replicate 2)?
Answer: -0.06334

Question: And the “2^-(deltaCq) GAPDH” value (GAPDH; 24 hr, replicate 3)?
Answer: 1.1521

Question: And the “Cq GAPDH” value (GAPDH; 24 hr, replicate 3)?
Answer: 19.5004

Question: What about the “Cq(sample) - avg Cq(GAPDH), GAPDH” value (GAPDH; 24 hr, replicate 3) of the same molecule?
Answer: -0.2043
